Data: US10889849B2, “Oxidized glutathione assay” (PROMEGA CORPORATION, priority 2010, dated 2021)

Assays:
[1] = test system: GST M; assay: Fluorescent detection of glutathione using Coumarin derivatives, GST M; format: biochemical; conditions: images at 1, 3, 5 and 20 minutes post GST enzyme addition
[2] = test system: GST A; assay: Fluorescent detection of glutathione using Coumarin derivatives, GST A; format: biochemical; conditions: images at 1, 3, 5 and 20 minutes post GST enzyme addition
Method: (§1) A Prionex® solution was made by mixing 200 μl of 10% Prionex® (Sigma) with 9.8 ml of 10 mM potassium phosphate buffer, pH 7.4, and 75 μl added to all wells of a 96-well, microtiter plate (“sample plate”). Stock solutions (2 mg/ml) of the GST enzymes GST (Promega Corp. V689B), GST A, GST B, and GST P (purified to have less than 1 mole of GSH per mole of protein) were diluted by addition of 12 ul of the enzyme to 150 ul of 10 mM Potassium Phosphate buffer pH 7.4/Prionex solution. These diluted stocks were then added to the wells. 75 ul of the diluted stocks were added to the wells in row A, and 75 ul transferred from row A through to row H to generate 1:1 serially diluted enzyme solutions.
(§2) To a different, 96-well microtiter plate, 25 μl of diluted PBI 4153 (25 μl 1 mg/ml solution of PBI 4153 with 5 ml of 10 mM potassium phosphate pH 7.4) was added to wells A1-H10 of the plate (“4153”). […]
(§3) If one or more of the GST enzyme forms can catalyze the Coumarin compound in the presence of glutathione, the samples containing a GST enzyme form will have an increase in fluorescence. The better the GST enzyme form can utilize the Coumarin derivative, the more rapid the increase in fluorescence, and the lower the concentrations of GST enzyme needed to be able to produce a substantial increase in fluorescence over time.

[3] = biological target: T1, GST (Promega Corp. V689B) (Schistosoma japonicum, UniProt P08515); assay: Fluorescent detection of glutathione using Coumarin derivatives, GST from Promega; format: biochemical; conditions: images at 1, 3, 5 and 20 minutes post GST enzyme addition
T1 construct: purchased Promega Corp. V689B
Method: as §1, §2, §3

[4] = biological target: GST P (Homo sapiens, UniProt P09211); assay: Fluorescent detection of glutathione using Coumarin derivatives, GST P; format: biochemical; conditions: images at 1, 3, 5 and 20 minutes post GST enzyme addition
Method: as §1, §2, §3

[5] = Fluorescent detection using Coumarin derivatives, control wells with only buffer (no GST); format: biochemical; conditions: reduced glutathione present, 1, 3, 5 and 20 minutes
Method: as §1, §2, §3

[6] = numerous reports (Srivastava et al. 2010); leading to cell death by apoptosis or necrosis; cited from earlier work
[7] = biological target: T2, GST (Promega) (Schistosoma japonicum, UniProt P08515); assay: GSSG measurement with other luciferin derivatives (luminescence); format: biochemical; conditions: GSSG 0.0 μM, luminescence without GSSG subtracted
T2 construct: purchased Promega
Method: Oxidized glutathione was serially diluted from a 10 mM stock in water to 0, 0.1, 0.5 and 2.5 uM into three different 96-well luminometer plates with duplicate reactions performed. A 30 μl sample of the GST 30 stock was diluted to 3 ml with GSH Glo Reaction Buffer (Promega), and 25 μl added to one of the plates (“30”). A 30 μl sample of GST 28 was diluted to 3 ml with GSH Glo Reaction Buffer, and 25 μl added to a second plate (“28”). A 110 μL sample of GST-22 was diluted to 3 ml with GSH Glo Reaction Buffer, and 25 μl added to the third plate (“GST-22” or “NT”). 50 μl of GSH Glo Reaction Buffer was then added to half the samples of each plate. 25 μl GSH Glo Reaction Buffer with DTT (150 μl of 100 mM DTT to 15 ml of GSH Glo Reaction Buffer) was added to the other half of the samples in each of the plates.
A 60 μl sample of GST (Promega) was diluted to 1 ml with GSH Glo Reaction Buffer, and 50 μl added to duplicate columns of each plate. […] The resulting luminescence was collected, and the duplicates averaged. The luminescence measured in the absence of GSSG was subtracted from that of the three GSSG concentrations, and the resulting values are presented in Table 6.

[8] = biological target: T3, S. japonica GST (Sigma) (Schistosoma japonicum, UniProt P08515); assay: Two step luminescent test of GST-3 as GST substrate, S. japonica GST; format: biochemical
T3 construct: purchased Sigma
Method: (§4) In the first step, GST-3 was added to a mixture containing a GST enzyme with or without glutathione. At different times after reaction initiation, a portion of the reaction was mixed with a luciferase reaction mixture. Reactions in which light production increased over time indicate that the derivative, GST-3, is a substrate for GST and can be used in an assay to detect GST and/or reduced glutathione (GSH).
(§5) Various GST enzyme forms were used to test the use of GST-3 as a substrate for GST to detect GST or GSH. All components except for the GST enzyme were added.

[9] = test system: porcine GST (Sigma); assay: Two step luminescent test of GST-3 as GST substrate, porcine GST; format: biochemical
Method: as §4, §5

[10] = test system: equine GST (Sigma); assay: Two step luminescent test of GST-3 as GST substrate, equine GST; format: biochemical
Method: as §4, §5

[11] = Two step luminescent test of GST-3, reactions without GST enzyme; format: biochemical
Method: as §4, §5

T3 sequence (P08515 whole entry): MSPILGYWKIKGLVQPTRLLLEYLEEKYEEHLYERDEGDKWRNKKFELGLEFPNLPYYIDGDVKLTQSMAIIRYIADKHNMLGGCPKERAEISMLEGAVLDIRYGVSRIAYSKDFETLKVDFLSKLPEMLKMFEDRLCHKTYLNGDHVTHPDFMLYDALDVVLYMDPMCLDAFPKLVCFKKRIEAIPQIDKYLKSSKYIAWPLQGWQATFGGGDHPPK
T2 sequence (P08515 whole entry): as above
Sequence of GST P (P09211 whole entry): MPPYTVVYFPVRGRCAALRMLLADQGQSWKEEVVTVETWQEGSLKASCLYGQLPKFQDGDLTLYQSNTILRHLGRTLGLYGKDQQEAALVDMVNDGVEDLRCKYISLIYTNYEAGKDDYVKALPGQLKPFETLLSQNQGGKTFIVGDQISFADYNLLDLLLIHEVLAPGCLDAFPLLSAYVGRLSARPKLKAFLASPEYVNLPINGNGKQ

For `Cc1cc(=O)oc2cc(OS(=O)(=O)c3ccc([N+](=O)[O-])c4ccccc34)ccc12` [PBI 4153], the “Utilization of the Coumarin compound (increase in fluorescence)” value (“Utilization … (increase in fluorescence)” below) [1] was “can rapidly utilize the Coumarin compound as a substrate”, the “Utilization … (increase in fluorescence)” value [2] was “can also utilize the compound, but at a slower rate” and the “Utilization … (increase in fluorescence)” value [3] was “also utilized the compound but at an even slower rate than GST A”. For the same compound, the “Utilization … (increase in fluorescence)” value [4] was “either did not utilize this compound or utilized it at a very, very slow rate” and the “Increase in fluorescence in control wells” value [5] was “no apparent increase in fluorescence”.
In the case of `NNC(=O)c1ccncc1` [isoniazid], the “Effect on the ratio of GSH to GSSG” value [6] is listed as “dramatically reduce the ratio of GSH to GSSG”.
In the case of `CC(=O)Nc1ccc(O)cc1` [acetaminophen], the “Effect on the ratio of GSH to GSSG” value [6] is given as “dramatically reduce the ratio of GSH to GSSG”.
For `Cc1ccc(S(=O)(=O)Oc2ccc3nc(C4=N[C@@H](C(=O)O)CS4)sc3c2)c([N+](=O)[O-])c1` [GST-22, Luciferin 2-nitro-4-methylbenzenesulfonate], the “Luminescence, GST with DTT” value ([7]; GST with DTT) was 0, the “Luminescence, No DTT” value ([7]; without enzyme and DTT) was 0 and the “Luminescence, With DTT” value ([7]; without enzyme but with DTT) was 0.
For `Cc1cc(=O)oc2cc(OS(=O)(=O)c3ccc([N+](=O)[O-])cc3)ccc12` [PBI 4146], the “Utilization … (increase in fluorescence)” value [1] was “can rapidly utilize the Coumarin compound”, the “Utilization … (increase in fluorescence)” value [2] was “either did not utilize this compound or utilized it at very, very slow rate” and the “Utilization … (increase in fluorescence)” value [3] was “can also utilize the compound, but at an even slower rate than GST M”. For the same compound, the “Utilization … (increase in fluorescence)” value [4] was “either did not utilize this compound or utilized it at very, very slow rate” and the “Increase in fluorescence in control wells” value [5] was “no apparent increase in fluorescence”.
In the case of `CC/C(=C(\c1ccccc1)c1ccc(OCCN(C)C)cc1)c1ccccc1` [tamoxifen], the “Effect on the ratio of GSH to GSSG” value [6] is given as “dramatically reduce the ratio of GSH to GSSG”.
With `O=C(O)[C@H]1CSC(c2ccc3cc(Oc4ccc(C(F)(F)F)cc4[N+](=O)[O-])ccc3n2)=N1` [GST-3, 6-(2 nitro-4-trifluoromethyl-phenoxy)quinolinyl-luciferin] the “Luminescence values (RLUs)” value ([8]; reaction 3: S. japonica GST, no glutathione, 0.1 minutes) was 32.67 RLUs, the “Luminescence values (RLUs)” value ([8]; reaction 3: S. japonica GST, no glutathione, 5 minutes) was 32.42 RLUs and the “Luminescence values (RLUs)” value ([8]; reaction 3: S. japonica GST, no glutathione, 10 minutes) was 38.65 RLUs. For the same compound, the “Luminescence values (RLUs)” value ([8]; reaction 3: S. japonica GST, no glutathione, 15 minutes) was 33.82 RLUs, the “Luminescence values (RLUs)” value ([8]; reaction 4: S. japonica GST with glutathione, 0.1 minutes) was 32.57 RLUs and the “Luminescence values (RLUs)” value ([8]; reaction 4: S. japonica GST with glutathione, 5 minutes) was 40.79 RLUs. For the same compound, the “Luminescence values (RLUs)” value ([8]; reaction 4: S. japonica GST with glutathione, 10 minutes) was 48.64 RLUs, the “Luminescence values (RLUs)” value ([8]; reaction 4: S. japonica GST with glutathione, 15 minutes) was 61.54 RLUs and the “Luminescence values (RLUs)” value ([9]; reaction 5: porcine GST, no glutathione, 0.1 minutes) was 46.95 RLUs. For the same compound, the “Luminescence values (RLUs)” value ([9]; reaction 5: porcine GST, no glutathione, 5 minutes) was 51.85 RLUs, the “Luminescence values (RLUs)” value ([9]; reaction 5: porcine GST, no glutathione, 10 minutes) was 51.15 RLUs and the “Luminescence values (RLUs)” value ([9]; reaction 5: porcine GST, no glutathione, 15 minutes) was 48.41 RLUs. For the same compound, the “Luminescence values (RLUs)” value ([9]; reaction 6: porcine GST with glutathione, 0.1 minutes) was 71.1 RLUs, the “Luminescence values (RLUs)” value ([9]; reaction 6: porcine GST with glutathione, 5 minutes) was 269.1 RLUs and the “Luminescence values (RLUs)” value ([9]; reaction 6: porcine GST with glutathione, 10 minutes) was 463.2 RLUs. For the same compound, the “Luminescence values (RLUs)” value ([9]; reaction 6: porcine GST with glutathione, 15 minutes) was 619.3 RLUs, the “Luminescence values (RLUs)” value ([10]; reaction 7: equine GST, no glutathione, 0.1 minutes) was 30.42 RLUs and the “Luminescence values (RLUs)” value ([10]; reaction 7: equine GST, no glutathione, 5 minutes) was 32.98 RLUs. The “Luminescence values (RLUs)” value ([10]; reaction 7: equine GST, no glutathione, 10 minutes) was 38.75 RLUs, the “Luminescence values (RLUs)” value ([10]; reaction 7: equine GST, no glutathione, 15 minutes) was 38.39 RLUs and the “Luminescence values (RLUs)” value ([10]; reaction 8: equine GST with glutathione, 0.1 minutes) was 252.2 RLUs. For the same compound, the “Luminescence values (RLUs)” value ([10]; reaction 8: equine GST with glutathione, 5 minutes) was 3662 RLUs, the “Luminescence values (RLUs)” value ([10]; reaction 8: equine GST with glutathione, 10 minutes) was 7629 RLUs and the “Luminescence values (RLUs)” value ([10]; reaction 8: equine GST with glutathione, 15 minutes) was 9324 RLUs. The “Luminescence values (RLUs)” value ([11]; reaction 1: no GST, no glutathione, 0.1 minutes) was 33.26 RLUs, the “Luminescence values (RLUs)” value ([11]; reaction 1: no GST, no glutathione, 5 minutes) was 38.2 RLUs and the “Luminescence values (RLUs)” value ([11]; reaction 1: no GST, no glutathione, 10 minutes) was 32.17 RLUs. For the same compound, the “Luminescence values (RLUs)” value ([11]; reaction 1: no GST, no glutathione, 15 minutes) was 35.53 RLUs, the “Luminescence values (RLUs)” value ([11]; reaction 2: no GST, with glutathione, 0.1 minutes) was 35.72 RLUs and the “Luminescence values (RLUs)” value ([11]; reaction 2: no GST, with glutathione, 5 minutes) was 36.07 RLUs. For the same compound, the “Luminescence values (RLUs)” value ([11]; reaction 2: no GST, with glutathione, 10 minutes) was 40.85 RLUs and the “Luminescence values (RLUs)” value ([11]; reaction 2: no GST, with glutathione, 15 minutes) was 46.43 RLUs.
